Measured values taken from PubChem BioAssay (NCI).
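Values below derive from 48-hour exposures of cells grown in 96-well plates, with endpoints linearly interpolated between the two concentrations bracketing the appropriate inhibition level. At the GI50, growth is halved. TGI is the concentration that stops growth completely.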

Columns and labels:
Assay in all cases: DTP human tumour cell line panel, 48 h
[1] = system: COLO 205 colon
[2] = system: EKVX NSCLC
[3] = system: HCT-15 colon
[4] = system: HL-60(TB) leukemia
[5] = system: KM12 colon
[6] = system: MCF7 breast
[7] = system: OVCAR-4 ovarian
[8] = system: PC-3 prostate
[9] = system: SF-539 CNS
[10] = system: SNB-19 CNS
[11] = system: UO-31 renal

Compound | GI50 [1] [µM] | TGI [1] [µM] | GI50 [2] [µM] | TGI [2] [µM] | GI50 [3] [µM] | TGI [3] [µM] | GI50 [4] [µM] | TGI [4] [µM] | GI50 [5] [µM] | TGI [5] [µM] | GI50 [6] [µM] | TGI [6] [µM] | GI50 [7] [µM] | TGI [7] [µM] | GI50 [8] [µM] | TGI [8] [µM] | TGI [9] [µM] | GI50 [10] [µM] | TGI [10] [µM] | TGI [11] [µM]
FC1(F)ON2CCc3ccccc3C2[C@H]1c1ccccc1 (some centres not stated) | > 100 | > 100 | > 100 | > 100 | > 100 | > 100 | > 100 | > 100 | > 100 | > 100 | > 100 | > 100 | > 100 | > 100 | > 100 | > 100 | > 100 | > 100 | > 100 | > 100
COC(=O)[C@H](Cc1ccccc1)NC(=O)c1ccc(CNC(=O)/C=C/c2ccc(OCc3ccccc3)cc2)cc1 | – | > 100 | – | 87.6 | – | > 100 | – | 11.8 | – | > 100 | – | > 100 | – | 25.2 | – | 43.8 | 51.9 | – | 36.8 | 29.5
CC(C)(C)C1=C(Br)C(F)(C(C)(C)C)OP1(=O)c1ccccc1 (configuration not stated) | – | 29.4 | – | 33.6 | – | 36.9 | – | 16.2 | – | 33.7 | – | 30 | – | 23 | – | 32 | 33.2 | – | 30.6 | 59.4
O=C1C(Cl)=C(Cl)C(=O)C(CCNc2nccs2)=C1Cl | – | > 100 | – | 60.4 | – | 43.7 | – | > 100 | – | > 100 | – | > 100 | – | > 100 | – | 42.2 | > 100 | – | > 100 | 46.4
Cn1c(-c2ccc(C=O)o2)ccc1-c1ccc(C=O)o1 | – | > 100 | – | > 100 | – | > 100 | – | 46 | – | > 100 | – | > 100 | – | > 100 | – | > 100 | 63.7 | – | > 100 | > 100
CC(NC1=NCCO1)c1ccccc1Cl (configuration not stated) | – | > 100 | – | > 100 | – | > 100 | – | > 100 | – | > 100 | – | > 100 | – | > 100 | – | > 100 | > 100 | – | > 100 | > 100
ClCc1nc2ccccc2[nH]1 | – | > 100 | – | > 100 | – | > 100 | – | > 100 | – | > 100 | – | > 100 | – | > 100 | – | > 100 | > 100 | – | > 100 | > 100
COc1ccc(/[N+]([O-])=C/c2ccc(OC(=S)S)c(OC)c2)cc1 | – | > 100 | – | > 100 | – | > 100 | – | 53.4 | – | 33.3 | – | > 100 | – | 49 | – | > 100 | > 100 | – | > 100 | > 100
NS(=O)(=O)c1ccc(NC(=O)N/N=C/c2ccccc2[N+](=O)[O-])cc1 | – | > 100 | – | > 100 | – | > 100 | – | > 100 | – | > 100 | – | > 100 | – | > 100 | – | > 100 | > 100 | – | > 100 | > 100
CO/C=C(/C(=O)OC)[C@@H]1C[C@@H]1c1ccc2ccccc2c1 | – | 32.9 | – | 60 | – | 49.9 | – | 49.3 | – | 54.6 | – | > 100 | – | 77.1 | – | > 100 | 44.2 | – | > 100 | > 100
COc1ccc(C(=O)/C=C/c2ccc(OCCCCCCCCCCOc3ccc(/C=C/C(=O)c4ccc(OC)cc4)cc3)cc2)cc1 | – | > 100 | – | > 100 | – | > 100 | – | > 100 | – | > 100 | – | > 100 | – | > 100 | – | > 100 | > 100 | – | > 100 | > 100
COC(=O)c1ccc(NCc2cc(OC)ccc2OC)cc1 | – | > 100 | – | > 100 | – | > 100 | – | > 100 | – | > 100 | – | > 100 | – | > 100 | – | > 100 | > 100 | – | > 100 | > 100
C#C[C@]1(O)CC[C@H]2[C@@H]3CCC4=C/C(=N\OCCN5CCCCC5)CC[C@]4(C)[C@H]3CC[C@@]21C | – | 7.43 | – | 19.9 | – | 23 | – | 6.23 | – | 12.3 | – | 15.6 | – | 40 | – | 17.3 | 15.5 | – | 19.1 | 16
COc1ccc2c(c1)c1c3c(ccc4ncn2c43)N(CCO)CCN=1 | – | 0.158 | – | 1.08 | – | 0.611 | – | 0.407 | – | 1.22 | – | 0.944 | – | 0.915 | – | 0.464 | 0.347 | – | 1.46 | 0.255
Cc1ncn(-c2ccccc2O)c1C | – | > 100 | – | > 100 | – | > 100 | – | > 100 | – | > 100 | – | > 100 | – | > 100 | – | > 100 | > 100 | – | > 100 | > 100
CC1C(C)(C)C23CC12C1(OCCO1)C3Br (configuration not stated) | – | > 100 | – | > 100 | – | > 100 | – | > 100 | – | > 100 | – | > 100 | – | > 100 | – | > 100 | > 100 | – | > 100 | > 100
S=C(NCc1ccccc1)Nc1sc(=NCc2ccccc2)nc2sc3c(c12)CCN(N1CCc2c(sc4nc(=NCc5ccccc5)sc(NC(=S)NCc5ccccc5)c24)C1)C3 | – | > 100 | – | > 64.1 | – | > 66.7 | – | 42.4 | – | > 67.5 | – | > 62.2 | – | > 91 | – | > 49.8 | > 45.9 | – | > 64.2 | > 60.8
O=c1[nH]c(Nc2ccc(Br)c(C(F)(F)F)c2)nc2nc[nH]c12 | – | 41 | – | > 100 | – | > 100 | – | > 100 | – | > 100 | – | > 100 | – | > 100 | – | > 100 | > 100 | – | > 100 | 77.4
